Publication PMC2905153 (Cell calcium, 2009)

Biological target: CRACM1/Orai1 (Homo sapiens, UniProt Q96D31)
Format: cell-based

CRACM1/Orai1, sequence (Q96D31 whole entry): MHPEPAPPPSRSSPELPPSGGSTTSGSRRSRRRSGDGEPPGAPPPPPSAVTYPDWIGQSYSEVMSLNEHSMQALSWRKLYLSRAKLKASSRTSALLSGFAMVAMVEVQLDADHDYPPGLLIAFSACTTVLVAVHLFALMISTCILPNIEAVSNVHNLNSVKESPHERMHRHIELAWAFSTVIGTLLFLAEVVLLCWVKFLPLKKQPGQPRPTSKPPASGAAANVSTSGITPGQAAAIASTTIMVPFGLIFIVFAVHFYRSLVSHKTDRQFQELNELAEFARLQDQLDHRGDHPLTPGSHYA
CRACM1/Orai1, sequence (Q13586 23-685 partner): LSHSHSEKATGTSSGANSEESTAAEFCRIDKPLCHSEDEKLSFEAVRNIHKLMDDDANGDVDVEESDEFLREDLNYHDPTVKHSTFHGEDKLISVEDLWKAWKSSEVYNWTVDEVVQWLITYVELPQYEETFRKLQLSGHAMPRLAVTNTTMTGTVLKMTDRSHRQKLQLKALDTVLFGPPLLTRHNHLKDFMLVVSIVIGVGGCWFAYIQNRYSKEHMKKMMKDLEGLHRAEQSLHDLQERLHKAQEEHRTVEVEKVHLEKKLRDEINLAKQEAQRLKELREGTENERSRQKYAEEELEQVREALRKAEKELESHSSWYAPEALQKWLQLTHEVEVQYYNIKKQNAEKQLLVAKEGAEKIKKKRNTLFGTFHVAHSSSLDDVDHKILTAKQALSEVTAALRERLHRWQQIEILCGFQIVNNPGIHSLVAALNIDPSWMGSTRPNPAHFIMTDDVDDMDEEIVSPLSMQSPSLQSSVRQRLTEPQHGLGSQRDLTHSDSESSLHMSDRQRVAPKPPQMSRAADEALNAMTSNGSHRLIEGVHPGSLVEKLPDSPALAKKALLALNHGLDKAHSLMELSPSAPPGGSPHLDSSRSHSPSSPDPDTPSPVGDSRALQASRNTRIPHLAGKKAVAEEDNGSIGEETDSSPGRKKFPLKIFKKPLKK

| Substance | IC50 [nM] |
| --- | --- |
| DPB162-AE | 86 ± 21 |
| DPB163-AE | 170 ± 68 |
